For one experiment, the target named is IDH1 R132H enzyme (Homo sapiens (Human), UniProt O75874, R132H). Put plainly: Mutant IDH1 R132H biochemical assay. Conditions: luminescent NADPH consumption readout; 1.5 nM enzyme, 1 μM NADPH, 250 μM α-KG, 30 min, 32° C. As to the method: Mutant IDH1 R132H Biochemical Assay
mIDH1 catalyzes the NADPH-dependent reduction of alpha-ketoglutarate (α-KG) to (2R)-2-hydroxyglutarate (2-HG). NADPH consumption was measured by luminescent readout.
The biochemical reactions were performed at 32° C. in 384-well plates using a reaction volume of 41 μL and the following assay buffer conditions: 50 mM Tris pH 7.5, 100 mM NaCl, 20 mM MgCl2, 0.05% BSA, 0.01% Brij, 1 μM NADPH, and 250 μM α-KG. The IDH1 R132H enzyme was used in a final concentration of 1.5 nM. Test compounds were used in a concentration range between 0.002 and 10 μM. The final DMSO concentration was 2.4%.
The reaction was incubated for 30 minutes, then 40 μL of detection mix (0.75 μg/ml Luciferase, 0.02 U/ml Oxidoreductase, 4 μg/mL FMN, 2 μL/ml decanal/ethanol, 50 mM Tris pH 7.5, 0.5% Glycerin, 0.01% Tween-20, 0.05% BSA) was added. Luminescence was measured on a luminescent reader (10 seconds measuring time, 1 second integration period, 30% sensitivity). The decrease in luminescence is proportional to mIDH1 activity. IC50 values are determined by interpolation from plots of relative luminescence versus inhibitor concentration.

Experiment [1] has as its system LN229 R132H cells overexpressing mutated isocitrate dehydrogenase (mIDH). Put plainly: Mutant IDH1 cellular assay (2-HG in medium). In kind it is cell-based. Conditions: 2-HG in medium after 24 hours, fluorescence readout. As to the method:
Mutant IDH1 Cellular Assay
Levels of (2R)-2-hydroxyglutarate (2HG) were measured in medium of a cell line with overexpression of mutated isocitrate dehydrogenase (mIDH) protein. mIDH catalyzes the NADPH-dependent reduction of alpha-ketoglutarate to 2-HG. Cells (LN229 R132H, Mohrenz et al., Apoptosis (2013) 18:1416-1425) were grown in DMEM containing 10% FCS. They were harvested by trypsin and seeded into 96-well plates. Cells were incubated overnight at 37° C. in 5% CO2. The next day test compounds were added to each cell well. The final concentration of DMSO was 0.1% and DMSO controls were included. The plates were then placed in an incubator for 24 hours.
2-HG was measured according to Balss et al. (Acta Neuropathol (2012) 124: 883-891). Briefly, perchloric acid was added to each well and the plates were centrifuged. Aliquots are removed and incubated with hydroxyglutarate dehydrogenase (HGDH), diaphorase, NAD+, and resazurin. The conversion of resazurin to resorufin was detected by fluorescence spectroscopy at Ex 540 nm Em 600 nm. The increase in fluorescence is proportional to 2-HG production. IC50 values are determined by interpolation from plots of relative fluorescence vs inhibitor concentration.

The structures appear in SMILES notation.

One may read the IC50 as the midpoint of a concentration-inhibition curve. Low values mean greater potency, high ones weaker potency.

Chain of IDH1 R132H enzyme (O75874 whole entry R132H): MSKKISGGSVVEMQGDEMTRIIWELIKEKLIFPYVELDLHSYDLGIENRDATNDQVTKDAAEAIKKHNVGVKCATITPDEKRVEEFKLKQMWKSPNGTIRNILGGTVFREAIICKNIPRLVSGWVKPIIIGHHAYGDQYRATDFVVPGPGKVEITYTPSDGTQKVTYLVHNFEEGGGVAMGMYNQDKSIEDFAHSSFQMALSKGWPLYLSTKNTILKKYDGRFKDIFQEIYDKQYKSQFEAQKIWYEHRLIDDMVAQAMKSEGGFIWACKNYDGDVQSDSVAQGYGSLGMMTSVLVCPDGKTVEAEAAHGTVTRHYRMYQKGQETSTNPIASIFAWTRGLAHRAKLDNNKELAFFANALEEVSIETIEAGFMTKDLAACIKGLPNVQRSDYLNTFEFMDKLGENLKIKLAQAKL

For `Cc1cc2c(cc1C(C)(C)O)nc(Nc1ccc(OC(F)(F)F)cc1)n2C1CC(C)(C)CC(C)(C)C1` [Example 2-4, 2-[6-methyl-1-(3,3,5,5-tetramethylcyclohexyl)-2-{[4-(trifluoromethoxy)phenyl]amino}-1H-benzimidazol-5-yl]propan-2-ol], the IC50 was 30 nM on IDH1 R132H enzyme and 550 nM in experiment [1] (Homo sapiens, LN-229, 24 h).

`COc1cc2c(cc1CO)nc(Nc1ccc(OC(F)(F)F)cc1)n2[C@H]1C[C@@H](C)CC(C)(C)C1` (single isomer, unassigned; enantiomer a) [Example 2-6-1, (6-methoxy-2-{[4-(trifluoromethoxy)phenyl]amino}-1-[(cis)-3,3,5-trimethylcyclohexyl]-1H-benzimidazol-5-yl)methanol, enantiomer A]: the IC50 against IDH1 R132H enzyme worked out at 20 nM; in experiment [1], 140 nM.

As for `COc1cc2c(cc1CO)nc(Nc1ccc(OC(F)(F)F)cc1)n2[C@H]1C[C@@H](C)CC(C)(C)C1` (single isomer, unassigned; enantiomer b) [Example 2-6-2, (6-methoxy-2-{[4-(trifluoromethoxy)phenyl]amino}-1-[(cis)-3,3,5-trimethylcyclohexyl]-1H-benzimidazol-5-yl)methanol, enantiomer B], the IC50 worked out at 110 nM against IDH1 R132H enzyme and 630 nM in experiment [1].

In the case of `COc1cc2c(cc1C(C)(C)O)nc(Nc1ccc(OC(F)(F)F)cc1)n2[C@H]1C[C@@H](C)CC(C)(C)C1` (single isomer, unassigned; enantiomer a) [Example 2-7-1, 2-(6-methoxy-2-{[4-(trifluoromethoxy)phenyl]amino}-1-[(cis)-3,3,5-trimethylcyclohexyl]-1H-benzimidazol-5-yl)propan-2-ol, enantiomer A], the figures for the IC50 (at IDH1 R132H enzyme; in experiment [1]) were 50 nM and 480 nM, respectively.

With `Cc1cc2c(cc1[C@@H](O)C(F)(F)F)nc(Nc1ccc(OC(F)(F)F)cc1)n2C1CC(C)(C)CC(C)(C)C1` (racemic) [Example 2-5, (±) 2,2,2-trifluoro-1-[6-methyl-1-(3,3,5,5-tetramethylcyclohexyl)-2-{[4-(trifluoromethoxy)phenyl]amino}-1H-benzimidazol-5-yl]ethanol], the 50% inhibitory concentration (IC50) against IDH1 R132H enzyme was determined as 30 nM; in experiment [1] (Homo sapiens, LN-229, 24 h) it was 800 nM.

Turning to `COc1cc2c(cc1C(C)(C)O)nc(Nc1ccc(OC(F)(F)F)cc1)n2[C@H]1C[C@@H](C)CC(C)(C)C1` (single isomer, unassigned; enantiomer b) [Example 2-7-2, 2-(6-methoxy-2-{[4-(trifluoromethoxy)phenyl]amino}-1-[(cis)-3,3,5-trimethylcyclohexyl]-1H-benzimidazol-5-yl)propan-2-ol, enantiomer B], the IC50 on IDH1 R132H enzyme was 20 nM; in experiment [1] it was 90 nM.

As for `C[C@@H]1C[C@H](n2c(Nc3ccc(OC(F)(F)F)cc3)nc3cc(CC(C)(C)O)c(F)cc32)CC(C)(C)C1` (racemic) [Example 2-10, (±) 1-(6-fluoro-2-{[4-(trifluoromethoxy)phenyl]amino}-1-[(cis)-3,3,5-trimethylcyclohexyl]-1H-benzimidazol-5-yl)-2-methylpropan-2-ol], half-maximal inhibition at IDH1 R132H enzyme (IC50) required 240 nM.

`COc1cc2c(cc1CC(C)(C)O)nc(Nc1ccc(OC(F)(F)F)cc1)n2[C@H]1C[C@@H](C)CC(C)(C)C1` (racemic) [Example 2-9, (±) 1-(6-methoxy-2-{[4-(trifluoromethoxy)phenyl]amino}-1-[(cis)-3,3,5-trimethylcyclohexyl]-1H-benzimidazol-5-yl)-2-methylpropan-2-ol] registered an IC50 against IDH1 R132H enzyme of 20 nM.

The molecule `CC(C)c1ccc(Nc2nc3cc(CC(C)(C)O)ccc3n2[C@@H]2C[C@H](C)CC[C@H]2C(C)C)cc1` [Example 2-16, 1-{1-[(1R,2S,5R)-2-isopropyl-5-methylcyclohexyl]-2-[(4-isopropyl-phenyl)amino]-1H-benzimidazol-5-yl}-2-methylpropan-2-ol] gave an IC50 against IDH1 R132H enzyme of 60 nM.

On to `Cc1cc2c(cc1CC(C)(C)O)nc(Nc1ccc(OC(F)(F)F)cc1)n2[C@H]1C[C@@H](C)CC(C)(C)C1` (single isomer, unassigned; enantiomer b) [Example 2-8-2, 2-methyl-1-(6-methyl-2-{[4-(trifluoromethoxy)phenyl]amino}-1-[(cis)-3,3,5-trimethylcyclohexyl]-1H-benzimidazol-5-yl)propan-2-ol, enantiomer B], for which, at IDH1 R132H enzyme, the half-inhibitory concentration (IC50) is 10 nM. This IC50 is about 6-fold lower than that of the molecule before.

As to `C[C@@H]1C[C@H](n2c(Nc3ccc(OC(F)(F)F)cc3)nc3cc(CO)ccc32)CC(C)(C)C1` (single isomer, unassigned; enantiomer a) [Example 2-1-1, (2-{[4-(trifluoromethoxy)phenyl]amino}-1-[(cis)-3,3,5-trimethylcyclohexyl]-1H-benzimidazol-5-yl)methanol, enantiomer A], the IC50 came out at 50 nM on IDH1 R132H enzyme and 1300 nM in experiment [1] (Homo sapiens, LN-229, 24 h).

For the molecule `C[C@@H]1C[C@H](n2c(Nc3ccc(OC(F)(F)F)cc3)nc3cc(CCC(C)(C)O)ccc32)CC(C)(C)C1` (single isomer, unassigned; enantiomer a) [Example 2-11-1, 2-methyl-4-(2-{[4-(trifluoromethoxy)phenyl]amino}-1-[(cis)-3,3,5-trimethylcyclohexyl]-1H-benzimidazol-5-yl)butan-2-ol, enantiomer A], the IC50 on IDH1 R132H enzyme was 210 nM. This counts as sub-micromolar.

The molecule `COc1cc2c(cc1CCC(C)(C)O)nc(Nc1ccc(OC(F)(F)F)cc1)n2[C@H]1C[C@@H](C)CC(C)(C)C1` (single isomer, unassigned; enantiomer a) [Example 2-12-1, 4-(6-methoxy-2-{[4-(trifluoromethoxy)phenyl]amino}-1-[(cis)-3,3,5-trimethylcyclohexyl]-1H-benzimidazol-5-yl)-2-methylbutan-2-ol, enantiomer A] had an IC50 at IDH1 R132H enzyme of 50 nM.

With `C[C@@H]1C[C@H](n2c(Nc3ccc(OC(F)(F)F)cc3)nc3cc(C(C)(C)O)ccc32)CC(C)(C)C1` (single isomer, unassigned; enantiomer b) [Example 2-2-2, 2-(2-{[4-(trifluoromethoxy)phenyl]amino}-1-[(cis)-3,3,5-trimethylcyclohexyl]-1H-benzimidazol-5-yl)propan-2-ol, enantiomer B], the IC50 came out at 40 nM against IDH1 R132H enzyme and 500 nM in experiment [1] (Homo sapiens, LN-229, 24 h).

The values are drawn from patent US10414734B2, “5-hydroxyalkylbenzimidazoles as mIDH1 inhibitors” (BAYER PHARMA AKTIENGESELLSCHAFT, priority 2015, dated 2019).
